Reference: patent US12285012B2, “Compositions comprising pyridine carboxylate herbicides with acetolactate synthase (ALS) inhibitor herbicides” (Corteva Agriscience LLC, priority 2018, dated 2025)
Where two headings read alike, the source gives them in different places.

What was measured:
[1] = tested on: Canadian thistle (CIRAR, Cirsium arvense); assay: Greenhouse postemergence herbicidal effect; format: in vivo
Method: (§1) The plants were grown for 7-36 days (d) in a greenhouse with an approximate 14-hour (h) photo-period which was maintained at about 23° C. during the day and 22° C. during the night. Nutrients and water were added on a regular basis and supplemental lighting was provided with overhead metal halide 1000-Watt lamps as necessary. The plants were employed for testing when they reached the second or third true leaf stage.
(§2) The emulsifiable concentrates also included a safener, cloquintocet-mexyl, at 120 grams active ingredient per liter (g ai/L), unless otherwise noted below.
(§3) Control plants were sprayed in the same manner with the solvent blank. All pyridine carboxylate herbicide (component a) application rates are given as “g ae/ha” and all ALS inhibitor (component b) application rates are given as “g ai/ha.”
(§4) The treated plants and control plants were placed in a greenhouse as described above and watered by sub-irrigation to prevent wash-off of the test compounds. After 20-22 d, the condition of the test plants as compared with that of the control plants was determined visually and scored on a scale of 0 to 100 percent where 0 corresponds to no injury and 100 corresponds to complete kill.

[2] = tested on: pigweed (AMARE, Amaranthus retroflexus); assay: Greenhouse postemergence herbicidal effect; format: in vivo
Method: as §1, §2, §3, §4

[3] = tested on: wild buckwheat (POLCO, Polygonum convolvulus); assay: Greenhouse postemergence herbicidal effect; format: in vivo; details: for % visual injury, Obs / Obs % visual injury: POLCO
Method: as §1, §2, §3, §4

[4] = tested on: wild chamomile (MATCH, Matricaria chamomilla); assay: Greenhouse postemergence herbicidal effect; format: in vivo
Method: as §1, §2, §3, §4

[5] = tested on: wild mustard (SINAR, Sinapis arvensis); assay: Greenhouse postemergence herbicidal effect; format: in vivo
Method: as §1, §2, §3, §4

[6] = tested on: winter rape (BRSNW, Brassica napus); assay: Greenhouse postemergence herbicidal effect; format: in vivo
Method: as §1, §2, §3, §4

[7] = tested on: common lambsquarters (CHEAL, Chenopodium album L.); assay: Greenhouse postemergence herbicidal effect; format: in vivo
Method: (§5) Seeds of the desired test plant species were planted in a 90:10% v/v (volume/volume) mixture of PRO-MIX® BX (Premier Tech Horticulture, Quakertown, PA, USA) and PROFILE® GREENS GRADE™ (Profile Products LLC, Buffalo Grove, IL, USA) planting mixture, which typically has a pH of 5.2 to 6.2 and an organic matter content of at least 50 percent, in plastic pots with a surface area of 103.2 square centimeters (cm^2). […] The plants were grown for 7-36 days (d) in a greenhouse with an approximate 14-hour (h) photo-period which was maintained at about 23° C. during the day and 22° C. during the night. Nutrients and water were added on a regular basis and supplemental lighting was provided with overhead metal halide 1000-Watt lamps as necessary. The plants were employed for testing when they reached the second or third true leaf stage.
(§6) Emulsifiable concentrates of each of each pyridine carboxylate herbicide (Compound A or Compound B) were prepared at 100 grams acid equivalent per liter (g ae/L). The emulsifiable concentrates also included a safener, cloquintocet-mexyl, at 120 grams active ingredient per liter (g ai/L), unless otherwise noted below. An aliquot of each emulsifiable concentrate was placed in a 25 mL glass vial and diluted with an aqueous mixture of 1.25% (v/v) ACTIROB® B esterified rapeseed oil (Bayer Crop Science, Research Triangle Park, NC, USA) or MSO® Concentrate with LECI-TECH® methylated soybean oil (Loveland Products, Loveland, CO, USA) to obtain concentrated stock solutions at the highest application rate for each herbicide, based upon a 12 milliliter (mL) application volume at a rate of 187 liters per hectare (L/ha). The concentrated stock solutions were further diluted with an aqueous mixture of 1.25% v/v ACTIROB® B or MSO® Concentrate with LECI-TECH® to obtain stock solutions at reduced application rates for each herbicide. Spray solutions of the herbicide combinations (Compound A or Compound B plus ALS herbicide) were prepared by adding weighed amounts or aliquots of the ALS herbicides to the stock solutions of Compound A or Compound B to form 12-mL spray solutions in two- or three-way combinations.
(§7) The spray solutions were applied to the plant material with an overhead Mandel track sprayer equipped with 8002E nozzles calibrated to deliver 187 L/ha over an application area of 0.503 square meters (m^2) at a spray height of 18 inches (43 centimeters (cm)) above the average plant canopy. Control plants were sprayed in the same manner with the solvent blank. All pyridine carboxylate herbicide (component a) application rates are given as “g ae/ha” and all ALS inhibitor (component b) application rates are given as “g ai/ha.”
as §4

[8] = tested on: kochia (KCHSC, Kochia scoparia); assay: Greenhouse postemergence herbicidal effect; format: in vivo
Method: as §5, §6, §7, §4

spring wheat (TRZAS) = format: in vivo, Triticum aestivum
Method: as §1, §2, §3, §4

spring barley (HORVS) = format: in vivo, Hordeum vulgare
Method: as §1, §2, §3, §4

[9] = tested on: Russian thistle (SASKR, Salsola kali); assay: Greenhouse postemergence herbicidal effect; format: in vivo
Method: as §1, §2, §3, §4

## COc1cc(OC)nc(Oc2cccc(Oc3nc(OC)cc(OC)n3)c2C(=O)O)n1 [Bispyrabac]
[1]; Bispyrabac 20 g/ha
  % visual injury Obs: 68%
[2]; Bispyrabac 20 g/ha
  % visual injury Obs: 100%
[3]; Bispyrabac 20 g/ha
  % visual injury Obs: 96%
[4]; Bispyrabac 20 g/ha
  % visual injury Obs: 23%
[5]; Bispyrabac 20 g/ha
  % visual injury Obs: 96%
[6]; Bispyrabac 20 g/ha
  % visual injury Obs: 100%
[7]; Bispyrabac 20 g/ha
  % visual injury Obs: 0%
[8]; Bispyrabac 20 g/ha
  % visual injury Obs: 10%
Spring wheat (TRZAS); Bispyrabac 20 g/ha
  % visual injury Obs: 0%
Spring barley (HORVS); Bispyrabac 20 g/ha
  % visual injury Obs: 13%

## COc1nn(C(=O)NS(=O)(=O)c2ccccc2OC(F)(F)F)c(=O)n1C [Flucarbazone, flucarbazone]
[1]; Cirsium arvense, post-emergence, CIRAR, Flurcarbazone 30 g/ha, read-out: % visual injury, Obs
  pest or weed control at 30 g/ha: 28%
[2]; AMARE, Flurcarbazone 30 g/ha
  % visual injury, Obs: 98%
[3]; Flurcarbazone 30 g/ha
  % visual injury, Obs: 88%
[4]; MATCH, Flurcarbazone 30 g/ha
  % visual injury, Obs: 18%
[5]; SINAR, Flurcarbazone 30 g/ha
  % visual injury, Obs: 88%
[6]; BRSNW, Flurcarbazone 30 g/ha
  % visual injury, Obs: 83%
[7]; CHEAL, Flurcarbazone 30 g/ha
  % visual injury, Obs: 10%
[8]; Bassia scoparia, post-emergence, KCHSC, Flurcarbazone 30 g/ha, read-out: % visual injury, Obs
  pest or weed control at 30 g/ha: 25%

## Cc1ccn2nc(S(=O)(=O)Nc3c(F)cccc3F)nc2n1 [Flumetsulam, flumetsulam]
[1]; Flumetsulam 4.375 g/ha
  % visual injury Obs: 5%
[9]; Flumetsulam 4.375 g/ha
  % visual injury Obs: 0%
[2]; Flumetsulam 4.375 g/ha
  % visual injury Obs: 98%
[3]; Flumetsulam 4.375 g/ha
  % visual injury Obs: 5%
[4]; Flumetsulam 4.375 g/ha
  % visual injury Obs: 83%
[5]; Flumetsulam 4.375 g/ha
  % visual injury Obs: 50%
[6]; Flumetsulam 4.375 g/ha
  % visual injury Obs: 40%
[7]; Flumetsulam 4.375 g/ha
  % visual injury Obs: 45%
[8]; Flumetsulam 4.375 g/ha
  % visual injury Obs: 5%

## Cc1cnc(C2=NC(C)(C(C)C)C(=O)N2)c(C(=O)O)c1 (centres unmarked) [Imazapic, imazapic]
[1]; CIRAR, Imazapic 35 g/ha
  Obs % visual injury: 68%
[9]; SASKR, Imazapic 35 g/ha
  Obs % visual injury: 35%
[2]; AMARE, Imazapic 35 g/ha
  Obs % visual injury: 100%
[3]; Imazapic 35 g/ha
  Obs % visual injury: 63%
[4]; MATCH, Imazapic 35 g/ha
  Obs % visual injury: 68%
[5]; SINAR, Imazapic 35 g/ha
  Obs % visual injury: 91%
[6]; BRSNW, Imazapic 35 g/ha
  Obs % visual injury: 98%
[7]; CHEAL, Imazapic 35 g/ha
  Obs % visual injury: 78%
[8]; KCHSC, Imazapic 35 g/ha
  Obs % visual injury: 80%

## CCc1cnc(C2=NC(C)(C(C)C)C(=O)N2)c(C(=O)O)c1 (centres unmarked) [Imazethapyr, imazethapyr]
[1]; Cirsium arvense, post-emergence, 35 g/ha, read-out: % visual injury, Obs
  pest or weed control at 35 g/ha: 40%
[9]; 35 g/ha
  % visual injury, Obs: 40%
[4]; 35 g/ha
  % visual injury, Obs: 18%
[7]; 35 g/ha
  % visual injury, Obs: 28%
[8]; Bassia scoparia, post-emergence, 35 g/ha, read-out: % visual injury, Obs
  pest or weed control at 35 g/ha: 53%

## COc1nc(C)nc(NC(=O)NS(=O)(=O)c2ccccc2C(=O)O)n1 [Metsulfuron, metsulfuron]
[1]; CIRAR, Metsulfuron 3 g/ha
  % visual injury, Obs: 85%
[2]; AMARE, Metsulfuron 3 g/ha
  % visual injury, Obs: 100%
[3]; Metsulfuron 3 g/ha
  % visual injury, Obs: 85%
[4]; MATCH, Metsulfuron 3 g/ha
  % visual injury, Obs: 96%
[5]; SINAR, Metsulfuron 3 g/ha
  % visual injury, Obs: 88%
[6]; BRSNW, Metsulfuron 3 g/ha
  % visual injury, Obs: 90%
[7]; CHEAL, Metsulfuron 3 g/ha
  % visual injury, Obs: 98%
[8]; KCHSC, Metsulfuron 3 g/ha
  % visual injury, Obs: 75%

## COc1nn(C(=O)NS(=O)(=O)c2c(C(=O)O)csc2C)c(=O)n1C [Thiencarbazone, thiencarbazone]
[1]; Thiencarbazone 5 g/ha
  % visual injury: 10%
[1]; Thiencarbazone 10 g/ha
  % visual injury Obs: 45%
[9]; Thiencarbazone 5 g/ha
  % visual injury: 53%
[2]; Thiencarbazone 5 g/ha
  % visual injury: 83%
[2]; Thiencarbazone 10 g/ha
  % visual injury Obs: 98%
[3]; Thiencarbazone 5 g/ha
  % visual injury: 89%
[3]; Thiencarbazone 10 g/ha
  % visual injury Obs: 95%
[4]; Thiencarbazone 5 g/ha
  % visual injury: 55%
[4]; Thiencarbazone 10 g/ha
  % visual injury Obs: 80%
[5]; Thiencarbazone 5 g/ha
  % visual injury: 95%
[5]; Thiencarbazone 10 g/ha
  % visual injury Obs: 90%
[6]; Thiencarbazone 5 g/ha
  % visual injury: 97%
[6]; Thiencarbazone 10 g/ha
  % visual injury Obs: 98%
[7]; Thiencarbazone 5 g/ha
  % visual injury: 60%
[7]; Thiencarbazone 10 g/ha
  % visual injury Obs: 83%
[8]; Thiencarbazone 5 g/ha
  % visual injury: 25%
[8]; Thiencarbazone 10 g/ha
  % visual injury Obs: 45%
Spring wheat (TRZAS); in vivo
  % visual injury: 0%
  % visual injury Obs: 0%
Spring barley (HORVS); in vivo
  % visual injury: 0%
  % visual injury Obs: 8%

## COc1nc(C)nc(N(C)C(=O)NS(=O)(=O)c2ccccc2C(=O)O)n1 [Tribenuron, tribenuron]
[1]; CIRAR, Tribenuron 15 g/ha
  % visual injury, Obs: 89%
[2]; AMARE, Tribenuron 15 g/ha
  % visual injury, Obs: 100%
[3]; Tribenuron 15 g/ha
  % visual injury, Obs: 78%
[4]; MATCH, Tribenuron 15 g/ha
  % visual injury, Obs: 87%
[5]; SINAR, Tribenuron 15 g/ha
  % visual injury, Obs: 95%
[6]; BRSNW, Tribenuron 15 g/ha
  % visual injury, Obs: 99%
[7]; CHEAL, Tribenuron 15 g/ha
  % visual injury, Obs: 96%
[8]; KCHSC, Tribenuron 15 g/ha
  % visual injury, Obs: 50%

## iodosulfuron
[1]; CIRAR, Iodosulfuron 33.75 g/ha
  % visual injury, Obs: 85%
[2]; AMARE, Iodosulfuron 33.75 g/ha
  % visual injury, Obs: 98%
[3]; Iodosulfuron 33.75 g/ha
  % visual injury, Obs: 85%
[4]; MATCH, Iodosulfuron 33.75 g/ha
  % visual injury, Obs: 85%
[5]; SINAR, Iodosulfuron 33.75 g/ha
  % visual injury, Obs: 100%
[6]; BRSNW, Iodosulfuron 33.75 g/ha
  % visual injury, Obs: 98%
[7]; CHEAL, Iodosulfuron 33.75 g/ha
  % visual injury, Obs: 90%
[8]; KCHSC, Iodosulfuron 33.75 g/ha
  % visual injury, Obs: 70%
Spring wheat (TRZAS); TRZAS, Iodosulfuron 33.75 g/ha
  % visual injury, Obs: 0%
Spring barley (HORVS); HORVS, Iodosulfuron 33.75 g/ha
  % visual injury, Obs: 0%

## mesosulfuron
[1]; CIRAR, Mesosulfuron 9 g/ha
  % visual injury, Obs: 73%
[1]; Mesosulfuron 3 g/ha
  % visual injury: 78%
[9]; Mesosulfuron 3 g/ha
  % visual injury: 15%
[2]; AMARE, Mesosulfuron 9 g/ha
  % visual injury, Obs: 100%
[2]; Mesosulfuron 3 g/ha
  % visual injury: 78%
[3]; Mesosulfuron 3 g/ha
  % visual injury: 20%
  Obs % visual injury: 3%
[3]; Mesosulfuron 9 g/ha
  % visual injury, Obs: 28%
[4]; MATCH, Mesosulfuron 3 g/ha
  Obs % visual injury: 10%
[4]; MATCH, Mesosulfuron 9 g/ha
  % visual injury, Obs: 45%
[4]; Mesosulfuron 3 g/ha
  % visual injury: 15%
[5]; Mesosulfuron 3 g/ha
  % visual injury: 98%
[5]; SINAR, Mesosulfuron 9 g/ha
  % visual injury, Obs: 94%
[6]; BRSNW, Mesosulfuron 9 g/ha
  % visual injury, Obs: 95%
[6]; Mesosulfuron 3 g/ha
  % visual injury: 100%
[7]; CHEAL, Mesosulfuron 9 g/ha
  % visual injury, Obs: 48%
[7]; Mesosulfuron 3 g/ha
  % visual injury: 30%
[8]; KCHSC, Mesosulfuron 9 g/ha
  % visual injury, Obs: 13%
[8]; Mesosulfuron 3 g/ha
  % visual injury: 0%
